Results: ChEMBL document CHEMBL1201862, “PubChem BioAssay data set” (2004)
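In this assay, cells in 96-well plates receive the compound at five concentrations for 48 hours. Endpoints are linearly interpolated between the surrounding concentrations. GI50 is the concentration that inhibits growth by half.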 Active and inactive are the calls of the source. Rule as the data show it: active = GI50 up to about 1.1 µM and inactive = higher.

What was measured:
Experiment in all cases: growth of human tumour cells (NCI), 48 h
Hs-578T = test system: Hs-578T
OVCAR-5 = test system: OVCAR-5
CCRF-CEM = test system: CCRF-CEM
UACC-62 = test system: UACC-62
MDA-MB-435 = test system: MDA-MB-435
LOX IMVI = test system: LOX IMVI
CAKI-1 = test system: CAKI-1
K562 = test system: K562
SK-MEL-5 = test system: SK-MEL-5
TK-10 = test system: TK-10
SF-268 = test system: SF-268
NCI-H522 = test system: NCI-H522
HCT-15 = test system: HCT-15
MDA-N = test system: MDA-N
RPMI-8226 = test system: RPMI-8226
U-251 = test system: U-251
NCI-H226 = test system: NCI-H226
SK-OV-3 = test system: SK-OV-3
OVCAR-4 = test system: OVCAR-4
HCC 2998 = test system: HCC 2998

Structure (SMILES)	GI50 (Hs-578T)	GI50 (OVCAR-5)	GI50 (CCRF-CEM)	GI50 (UACC-62)	GI50 (MDA-MB-435)	GI50 (LOX IMVI)	GI50 (CAKI-1)	GI50 (K562)	GI50 (SK-MEL-5)	GI50 (TK-10)	GI50 (SF-268)	GI50 (NCI-H522)	GI50 (HCT-15) [µM]	GI50 (MDA-N)	GI50 (RPMI-8226)	GI50 (U-251)	GI50 (NCI-H226)	GI50 (SK-OV-3)	GI50 (OVCAR-4)	GI50 (HCC 2998)
CCOC(=O)CC(=O)N(c1ccc(OC)cc1)C(C(=O)OC)c1ccccc1 (stereo not given)	> 100 µM (inactive)	> 100 µM (inactive)	> 100 µM (inactive)	> 100 µM (inactive)	> 100 µM (inactive)	> 100 µM (inactive)	> 100 µM (inactive)	> 100 µM (inactive)	> 100 µM (inactive)	> 100 µM (inactive)	> 100 µM (inactive)	> 100 µM (inactive)	> 100	> 100 µM (inactive)	> 100 µM (inactive)	–	–	–	–	–
Cc1nc(O)c2c3c(sc2n1)CCCC3	> 100 µM (inactive)	60.7 µM (inactive)	–	58.2 µM (inactive)	> 100 µM (inactive)	72.4 µM (inactive)	> 100 µM (inactive)	96.6 µM (inactive)	> 100 µM (inactive)	> 100 µM (inactive)	> 100 µM (inactive)	> 100 µM (inactive)	> 100	87.7 µM (inactive)	84.9 µM (inactive)	66.2 µM (inactive)	> 100 µM (inactive)	> 100 µM (inactive)	> 100 µM (inactive)	–
O=C(O)C1C2CCC(O2)C1C(=O)NCc1cccnc1 (stereo not given)	> 100 µM (inactive)	> 100 µM (inactive)	> 100 µM (inactive)	> 100 µM (inactive)	> 100 µM (inactive)	> 100 µM (inactive)	> 100 µM (inactive)	–	> 100 µM (inactive)	> 100 µM (inactive)	–	> 100 µM (inactive)	> 100	> 100 µM (inactive)	> 100 µM (inactive)	> 100 µM (inactive)	–	> 100 µM (inactive)	> 100 µM (inactive)	–
CCOC(=O)C1(C)CCc2sc(N)c(C#N)c21 (stereo not given)	> 100 µM (inactive)	> 100 µM (inactive)	> 100 µM (inactive)	> 100 µM (inactive)	–	–	–	> 100 µM (inactive)	> 100 µM (inactive)	> 100 µM (inactive)	–	–	> 100	> 100 µM (inactive)	> 100 µM (inactive)	> 100 µM (inactive)	> 100 µM (inactive)	–	–	> 100 µM (inactive)
COc1ccc2nc3ccccc3c(NCCCCN(CCCl)CCCl)c2c1	2 µM (inactive)	0.507 µM (active)	0.01 µM (active)	0.245 µM (active)	0.323 µM (active)	0.0596 µM (active)	0.0253 µM (active)	0.0376 µM (active)	0.292 µM (active)	1.17 µM (inactive)	0.0735 µM (active)	0.02 µM (active)	0.244	–	< 0.0476 µM (active)	0.0752 µM (active)	0.368 µM (active)	1.22 µM (inactive)	0.148 µM (active)	1.04 µM (active)
O=C1CC(c2ccccc2)n2cccc21 (stereo not given)	> 100 µM (inactive)	> 100 µM (inactive)	> 100 µM (inactive)	> 100 µM (inactive)	> 100 µM (inactive)	> 100 µM (inactive)	> 100 µM (inactive)	> 100 µM (inactive)	> 100 µM (inactive)	> 100 µM (inactive)	> 100 µM (inactive)	> 100 µM (inactive)	> 100	–	> 100 µM (inactive)	> 100 µM (inactive)	> 100 µM (inactive)	> 100 µM (inactive)	> 100 µM (inactive)	> 100 µM (inactive)
CC(=O)c1c(O)cc(O)c(-c2c(C)cc(O)c3c2C(=O)c2cccc(O)c2C3=O)c1O	7.48 µM (inactive)	17.3 µM (inactive)	–	14.5 µM (inactive)	16.7 µM (inactive)	12.8 µM (inactive)	–	19.4 µM (inactive)	–	15.8 µM (inactive)	15.1 µM (inactive)	10 µM (inactive)	14.1	16 µM (inactive)	7.76 µM (inactive)	14 µM (inactive)	18.3 µM (inactive)	13.1 µM (inactive)	10.8 µM (inactive)	–
CN(/N=C/c1ccccc1O)c1ccc2ccccc2n1	26.7 µM (inactive)	41.2 µM (inactive)	12.9 µM (inactive)	35.2 µM (inactive)	44.4 µM (inactive)	30.8 µM (inactive)	33.9 µM (inactive)	60.3 µM (inactive)	32.5 µM (inactive)	22.2 µM (inactive)	22.5 µM (inactive)	24.9 µM (inactive)	12.5	52.2 µM (inactive)	35.6 µM (inactive)	16.3 µM (inactive)	78 µM (inactive)	16.3 µM (inactive)	20.3 µM (inactive)	–
NCCC(=O)N[C@@H](Cc1cc(O)c(O)c(SCC(NC(=O)CC[C@H](N)C(=O)O)C(=O)NCC(=O)O)c1)C(=O)O (stereo not given in full)	–	> 50 µM (inactive)	–	> 50 µM (inactive)	> 50 µM (inactive)	–	> 50 µM (inactive)	> 50 µM (inactive)	–	> 50 µM (inactive)	> 50 µM (inactive)	> 50 µM (inactive)	> 50	> 50 µM (inactive)	> 50 µM (inactive)	> 50 µM (inactive)	> 50 µM (inactive)	> 50 µM (inactive)	> 50 µM (inactive)	> 50 µM (inactive)
O=c1[nH]c(=O)n(C2OC(COP(=O)(O)OP(=O)(O)OC3OC(CO)C(O)C(O)C3O)C(O)C2O)cc1F (stereo not given)	–	0.908 µM (active)	0.0929 µM (active)	0.307 µM (active)	–	0.0314 µM (active)	0.109 µM (active)	0.0302 µM (active)	0.407 µM (active)	1.67 µM (inactive)	0.0475 µM (active)	0.327 µM (active)	0.0384	–	< 0.01 µM (active)	0.0577 µM (active)	0.148 µM (active)	0.975 µM (active)	1.26 µM (inactive)	0.116 µM (active)
C=C1CC[C@]2(C)[C@H](CC[C@@]34C[C@@H](CC[C@H]32)[C@@H](C(=O)O)C4)C1(C)C	6.68 µM (inactive)	> 12.5 µM (inactive)	7.05 µM (inactive)	> 12.5 µM (inactive)	> 12.5 µM (inactive)	> 12.5 µM (inactive)	> 12.5 µM (inactive)	4.21 µM (inactive)	8.24 µM (inactive)	> 12.5 µM (inactive)	–	–	> 12.5	> 12.5 µM (inactive)	–	> 12.5 µM (inactive)	> 12.5 µM (inactive)	> 12.5 µM (inactive)	> 12.5 µM (inactive)	–
CNC(=O)c1nn[nH]c1Sc1c([N+](=O)[O-])ncn1C	> 100 µM (inactive)	> 100 µM (inactive)	> 100 µM (inactive)	> 100 µM (inactive)	> 100 µM (inactive)	> 100 µM (inactive)	> 100 µM (inactive)	> 100 µM (inactive)	> 100 µM (inactive)	> 100 µM (inactive)	> 100 µM (inactive)	> 100 µM (inactive)	> 100	–	–	> 100 µM (inactive)	–	> 100 µM (inactive)	> 100 µM (inactive)	> 100 µM (inactive)
CN(C)C(=S)Nc1nnc(NC23CC4CC(CC(C4)C2)C3)s1.[O-][Cl+3]([O-])([O-])O	–	10 µM (inactive)	15 µM (inactive)	16.5 µM (inactive)	–	17.5 µM (inactive)	20.1 µM (inactive)	15.8 µM (inactive)	0.1 µM (active)	40.5 µM (inactive)	16.4 µM (inactive)	16.1 µM (inactive)	13.6	–	16 µM (inactive)	12.2 µM (inactive)	19.4 µM (inactive)	43.8 µM (inactive)	16.1 µM (inactive)	18.9 µM (inactive)
COC(=O)/C=C1\C(CO[Si](C)(C)C(C)(C)C)OC(n2ccc(=O)[nH]c2=O)C1O (stereo not given)	–	16.5 µM (inactive)	6.27 µM (inactive)	13.7 µM (inactive)	8.13 µM (inactive)	6.41 µM (inactive)	22.6 µM (inactive)	5.4 µM (inactive)	6.28 µM (inactive)	24.2 µM (inactive)	0.367 µM (active)	–	6.71	7.67 µM (inactive)	6.07 µM (inactive)	7.8 µM (inactive)	5.58 µM (inactive)	–	15 µM (inactive)	7.71 µM (inactive)
CCN=C=NCCCN(C)C	> 100 µM (inactive)	> 100 µM (inactive)	> 100 µM (inactive)	> 100 µM (inactive)	> 100 µM (inactive)	> 100 µM (inactive)	> 100 µM (inactive)	> 100 µM (inactive)	> 100 µM (inactive)	> 100 µM (inactive)	> 100 µM (inactive)	> 100 µM (inactive)	> 100	> 100 µM (inactive)	> 100 µM (inactive)	> 100 µM (inactive)	> 100 µM (inactive)	> 100 µM (inactive)	> 100 µM (inactive)	–
CCOC(=O)c1c(NS(=O)(=O)c2ccccc2)sc2c1CCCC2	82.8 µM (inactive)	> 100 µM (inactive)	25.5 µM (inactive)	76 µM (inactive)	–	–	> 100 µM (inactive)	30.8 µM (inactive)	74.5 µM (inactive)	62.8 µM (inactive)	64.9 µM (inactive)	–	33.7	> 100 µM (inactive)	26.9 µM (inactive)	–	> 100 µM (inactive)	–	–	–
c1cncc(C2(c3cc4ccccc4[nH]3)COCO2)c1 (stereo not given)	> 100 µM (inactive)	> 100 µM (inactive)	10.5 µM (inactive)	96.8 µM (inactive)	> 100 µM (inactive)	> 100 µM (inactive)	> 100 µM (inactive)	> 100 µM (inactive)	38.2 µM (inactive)	> 100 µM (inactive)	> 100 µM (inactive)	–	> 100	–	> 100 µM (inactive)	> 100 µM (inactive)	> 100 µM (inactive)	> 100 µM (inactive)	65 µM (inactive)	> 100 µM (inactive)
